How the values were obtained:
[1] = system: Schizosaccharomyces pombe; assay: Filter disc assay on a lawn of S. pombe; type: cell-based; conditions: for bioactivity against S. pombe (haloes/zones of inhibition), relative: zinc complexed versus zinc-free form, tested in parallel
Method: The silica powder with the S149 compound adsorbed onto it was divided into two equal portions of ˜7.5 g and each portion was used in normal phase “flash” chromatography using a Biotage™ Isolera™ machine and a Biotage™ KP-Sil 50 g column. A chloroform-methanol gradient was used to elute the bound material from the silica in which the percentage of methanol went from 0%-100%. No formic acid was added to the solvents as this degrades the bioactive compound. The eluate from the column was fractionated and the presence of the bioactive compound (S149) determined using the “Filter disc assay” method as described in the “Materials and Methods” of Lewis et al., 2017. The active fractions eluted from the two normal phase chromatography columns were pooled, and after removal of the solvent using a GeneVac™ Series U system equipped with a GeneVac™ VC3000TA condenser unit, the dried material was resuspended in 5 ml of methanol which was loaded onto a size exclusion column. The column was run at a flow rate of 1 ml/min with 1,200 ml of methanol and the eluate fractionated. The bioactive fractions, as determined using the “Filter disc assay” method as described in the “Materials and Methods” of Lewis et al., 2017, were pooled to give ˜15 ml of material which was diluted with 60 ml of water to give 75 ml of a 20% methanol solution. This was used in reverse phase chromatography using a Biotage™ Isolera™ chromatography machine in which the bioactive material was loaded by injection onto a C18 SNAP Ultra 12 g Biotage™ column and eluted using an acetonitrile-water gradient where the percentage of acetonitrile was increased from 20%-100%.
An example of the u.v. absorbance pattern (λ=254 nm) is shown in FIG. 1 and indicates the presence of four peaks labelled 0-3. An integrated fraction collector was used to peak-pick material and collect column eluate corresponding to the peaks which were then bioassayed using the “Filter disc assay” method as described in the “Materials and Methods” of Lewis el al., 2017.

[2] = biological target: forkhead transcription factor, Foxo3a (Homo sapiens, UniProt O43524); conditions: published by Kawahara et al., 2015; cited from earlier work
Chain of forkhead transcription factor, Foxo3a (O43524 whole entry): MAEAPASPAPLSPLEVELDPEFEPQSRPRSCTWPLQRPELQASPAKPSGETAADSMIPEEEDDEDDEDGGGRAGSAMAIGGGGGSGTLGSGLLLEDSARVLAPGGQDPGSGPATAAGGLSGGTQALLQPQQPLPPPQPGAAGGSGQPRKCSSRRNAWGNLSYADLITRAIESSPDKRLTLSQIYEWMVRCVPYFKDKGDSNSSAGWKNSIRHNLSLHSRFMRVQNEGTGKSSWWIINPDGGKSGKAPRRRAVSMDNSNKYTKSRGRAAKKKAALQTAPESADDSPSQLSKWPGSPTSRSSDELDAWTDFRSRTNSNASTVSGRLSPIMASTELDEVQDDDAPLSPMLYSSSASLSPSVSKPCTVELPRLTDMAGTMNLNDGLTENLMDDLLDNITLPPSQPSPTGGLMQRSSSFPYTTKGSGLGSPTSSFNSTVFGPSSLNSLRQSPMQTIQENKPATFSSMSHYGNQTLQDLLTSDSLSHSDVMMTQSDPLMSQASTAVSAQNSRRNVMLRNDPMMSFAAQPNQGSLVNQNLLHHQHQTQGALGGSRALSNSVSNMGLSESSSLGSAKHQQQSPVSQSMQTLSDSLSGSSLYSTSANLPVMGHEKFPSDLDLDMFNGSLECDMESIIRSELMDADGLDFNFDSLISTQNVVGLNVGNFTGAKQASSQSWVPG

SMILES | time for haloes in the S. pombe lawn around impregnated discs to develop ([1]; filter discs impregnated with HPLC peak material) [h] | bioactivity against S. pombe (haloes/zones of inhibition), relative [1] | bioactivity against S. pombe (haloes/zones of inhibition), relative ([1]; listed as JBIR 141) | bioactivity against S. pombe (haloes/zones of inhibition), relative ([1]; listed as Peak 0) | inhibition of the transcriptional activity of Foxo3a [2]
CC(=O)O[C@@H]([C@H](CCCN(O)N=O)NC(=O)[C@H]1N=C([C@H](C)N(C)C)O[C@@H]1C)C(C)(C)C(=O)O[C@H](C(=O)C1=C(O)[C@H](C)N(C)C1=O)C(C)C [JBIR-141] | ~48 | not as bioactive as the zinc complexed form | not as bioactive as the zinc complexed form | lower than the bioactivity of the material from the other peaks | possess the ability to inhibit the transcriptional activity
CC(=O)O[C@@H]([C@H](C[C@@H](O)CN(O)N=O)NC(=O)[C@H]1N=C([C@H](C)N(C)C)O[C@@H]1C)C(C)(C)C(=O)O[C@H](C(=O)C1=C(O)[C@H](C)N(C)C1=O)C(C)C [JBIR-142] | – | – | – | – | possess the ability to inhibit the transcriptional activity

From patent publication US20230181745A1, “ZINC COMPLEXES AND THEIR USES” (Demuris Limited, priority 2020, published 2023)
